Assay results: publication PMC6843786, “Temporin-SHa and Its Analogs as Potential Candidates for the Treatment of Helicobacter pylori” (Biomolecules, 2019)
Entries after “also recorded” stand apart in the source; their conditions may differ. Non-standard residues stand in square brackets, D forms with d. Residues, ends and D or L forms follow the SMILES beside them.

What was measured:
H. pylori (ATCC 43504) [1] = assay: MIC after digestion by pepsin (resistance to pepsin)
Description: (§1) Briefly, after the growth of H. pylori in liquid culture the optical density (OD) of the bacterial suspensions were read at 600 nm and adjusted to one. Stock solutions of the peptides at 1 mM were prepared in sterile water. Bacteria were diluted in medium to reach bacterial density around 10^5 bacteria/mL. One-hundred microliters per well of bacterial suspension were then added into sterile polypropylene 96-well microplates (Greiner BioOne, Paris, France) and exposed to increasing concentrations of peptides (from zero to 100 µM, 1:2 serial dilution). […] Plates were incubated at 37 °C for 24 h for H. pylori (ATCC 43504) and for 4–7 days for the clinical strains. H. pylori was tested in microaerophilic conditions generated using micro-anaerobic BD GasPak system. At the end of the incubation, OD600nm was measured using microplate reader (Synergy Mx, Biotek, Colmar, France). The MIC was defined as the lowest concentration of drug that inhibited visible growth of the organism. Experiments were conducted in independent triplicate (n = 3).
(§2) It is also rich with mucus to protect it from the aggressive acidity. For this reason, the impact of mucins and pepsin on the activity of the peptides was investigated. The impact of the gastric mucins on peptide activity was evaluated using a combination of commercial porcine stomach mucins MUC2 and MUC3 (Sigma–Aldrich) at a final concentration of 1 mg/mL sterilized using 0.2 µm filter. This concentration was used based on the estimated concentration of mucins present in the mucus in vivo [27]. The effect of mucins on peptides activity was evaluated by MIC and by time killing assay as explained below. The resistance of the peptides to pepsin was tested as previously described with some changes. […] This concentration was used since it corresponds the pepsin concentration in the stomach (0.5–1 mg/mL).

N87 cells = assay: In vitro toxicity assay using human gastric cells (resazurin); assay type: cell-based
Description: [26] Human gastric cells N87 (ATCC CRL-5822) were cultured in RPMI-1640 medium supplemented with 10% fetal calf serum (FCS), 1% L-glutamine and 1% antibiotics (all from Invitrogen, Carlsbad, CA, USA) and were routinely seeded onto 25 cm^2 flasks maintained in a 5% CO2 incubator at 37 °C. For the toxicity assay, cells grown on 25 cm^2 flasks were detached using trypsin–EDTA solution (from Thermofisher), counted using Mallasez counting chamber and seeded into 96-well cell culture plates (Greiner Bio-one) at approximately 10^4 cells per well. The cells were left to grow for 48–72 h at 37 °C in a 5% CO2 incubator until they reached confluence. Plates were then aspirated and increasing concentrations of peptides were added to the cells for 48 h at 37 °C in a 5% CO2 incubator, volume of water corresponding to the volume of peptides being used as negative control. At the end of the incubation, wells were aspirated, and cell viability was evaluated using resazurin-based in vitro toxicity assay kit (Sigma-Aldrich) following manufacturer’s instructions. Briefly, resazurin stock solution was diluted 1:10 in sterile PBS containing calcium and magnesium (PBS^++, pH 7.4) and empty wells were filled with 100 µL of the diluted solution. After 4 h incubation at 37 °C, fluorescence intensity was measured using microplate reader (Synergy Mx, Biotek) with an excitation wavelength of 530 nm and an emission wavelength of 590 nm. The fluorescence values were normalized by the controls and expressed as percent viability.

H. pylori (ATCC 43504) [2] = tested on: H. pylori (ATCC 43504)
Description: as §1, §2

CC[C@H](C)[C@H](NC(=O)CNC(=O)[C@H](CO)NC(=O)[C@H](CC(C)C)NC(=O)[C@@H](N)Cc1ccccc1)C(=O)N[C@H](C(=O)NCC(=O)N[C@@H](CCSC)C(=O)N[C@@H](CC(C)C)C(=O)N[C@H](C)C(=O)N[C@@H](CCCCN)C(=O)N[C@@H](CC(C)C)C(=O)N[C@@H](Cc1ccccc1)C(N)=O)C(C)C [NST1, H-Phe^1-Leu^2-Ser^3-Gly^4-Ile^5-Val^6-Gly^7-Met^8-Leu^9-D-Ala^10-Lys^11-Leu^12-Phe^13-NH2] (H-FLSGIVGML[dA]KLF-NH2)
MIC after Digestion by Pepsin (H. pylori (ATCC 43504) [1]; 4 h at 37 °C with pepsin 1 mg/mL in HCl pH 2): 25 µM
resistance to pepsin (in words) (H. pylori (ATCC 43504) [1]; 4 h at 37 °C with pepsin 1 mg/mL, HCl pH 2): partial resistance towards pepsin; also recorded: partial resistance to the digestion by pepsin
IC50 (N87 cells; 48 h incubation, resazurin cell viability, read-out: IC50 on N87 Cells): 90.4 ± 10.4 µM
increase in toxicity to human gastric cells compared to temporin-SHa (N87 cells; from IC50 on N87 cells): ~17 fold
increase of MIC in the presence of mucins (H. pylori (ATCC 43504) [2]; MUC2 and MUC3 at 1 mg/mL versus no mucins): two
MIC in the Presence of mucins (H. pylori (ATCC 43504) [2]; porcine gastric mucins MUC2 and MUC3 at 1 mg/mL): 3.12 µM
